Data reported in article PMC5041986 (Oncotarget, 2016).
Where two headings read alike, the source gives them in different places.

What was measured:
HUVEC = test: MTT cell viability assay; assay type: cell-based; conditions: Homo sapiens, HUVEC (normal cell), 72 h
Procedure: (§3) Cells were seeded in 96-well plates and exposed to DMSO, or indicated compounds for 72 hours. Cell viability was assessed using the 3-(4,5-dimethylthiazol-2-yl)-2,5-diphenyltetrazolium bromide (MTT) assay as described previously [46]. Briefly, 100 μl of 0.5 mg/ml MTT were added to each well and incubated at 37°C for 1 hour. After that, 100 μl of extraction reagents (0.1 M sodium acetate buffer for suspension cells or DMSO for attached cells) were added to each well to lyse cells and absorbance at 550 nm was measured. Cell viability was expressed as the percentage of surviving cells in drug-treated versus DMSO-treated control cells (which was considered as 100% viability).

RT-112 cells [1] = test: Flow cytometric cell cycle analysis; assay type: cell-based; conditions: flow cytometry; for G0/G1 cell cycle arrest: 4 μM, 24 h; for accumulation of the sub-G1 phase (apoptotic cell death): 48 h to 72 h
Procedure: Cells were seeded in 6-well plates and treated with DMSO or indicated compounds at various concentrations for the indicated times. After treatment, the cells were harvested by trypsinization, washed with PBS, and the pellets were fixed in ice-cold 70% ethanol at -20°C overnight. After centrifugation, the cells were incubated for 15 minutes at room temperature in 0.1 mL of phosphate-citric acid buffer (0.2 M NaHPO4, 0.1 M citric acid, and pH 7.8) and then stained with propidium iodide staining buffer containing Triton X-100 (0.1%, v/v), RNase A (100 μg/mL), and propidium iodide (80 μg/mL) for 30 minutes in the dark. DNA contents were analyzed by flow cytometry with CellQuest software (Becton Dickinson, Mountain View, CA, USA). The results were obtained from three independent experiments and the representative data were shown in Supplementary Figure S8 and S9.

A549 cells = test: MTT cell viability assay; assay type: cell-based; conditions: Homo sapiens, A549 (lung), 72 h
Procedure: as §3

RT-112 cells [2] = test: SA-β-galactosidase staining (senescence); assay type: cell-based
Procedure: Cells were seeded in 6-well plates and treated with indicated agents for 24h. Senescence was measured by Senescence β-Galactosidase Staining Kit according to the manufacture's instruction (Cell Signaling Technology, Danvers, MA, USA).

VEGFR2 = target: T1, VEGFR2 (Homo sapiens, UniProt P35968); test: KINOMEscan competition-binding assay
T1 construct: purchased DiscoverRx (KINOMEscan service)
Procedure: (§1) The screening is based on a competition-binding assay and the K d values were determined as described previously.

TYK2 = target: T2, TYK2 (Homo sapiens, UniProt P29597); test: KINOMEscan competition-binding assay
T2 construct: purchased DiscoverRx (KINOMEscan service)
Procedure: as §1

FGFR2 = target: T3, FGFR2 (Homo sapiens, UniProt P21802); test: KINOMEscan competition-binding assay
T3 construct: purchased DiscoverRx (KINOMEscan service)
Procedure: as §1

FGFR1 = target: T4, FGFR1 (Homo sapiens, UniProt P11362); test: KINOMEscan competition-binding assay
T4 construct: purchased DiscoverRx (KINOMEscan service)
Procedure: as §1

CSF1R = target: T5, CSF1R (Homo sapiens, UniProt P07333); test: KINOMEscan competition-binding assay
T5 construct: purchased DiscoverRx (KINOMEscan service)
Procedure: as §1

PDGFRB = target: T6, PDGFRB (Homo sapiens, UniProt P09619); test: KINOMEscan competition-binding assay
T6 construct: purchased DiscoverRx (KINOMEscan service)
Procedure: as §1

FGFR4 = target: T7, FGFR4 (Homo sapiens, UniProt P22455); test: KINOMEscan competition-binding assay
T7 construct: purchased DiscoverRx (KINOMEscan service)
Procedure: as §1

Erbb2 = target: T8, Erbb2 (Homo sapiens, UniProt P04626); test: KINOMEscan competition-binding assay
T8 construct: purchased DiscoverRx (KINOMEscan service)
Procedure: as §1

FGFR3 = target: T9, FGFR3 (Homo sapiens, UniProt P22607); test: KINOMEscan competition-binding assay
T9 construct: purchased DiscoverRx (KINOMEscan service)
Procedure: as §1

FLT3 = target: T10, FLT3 (Homo sapiens, UniProt P36888); test: KINOMEscan competition-binding assay
T10 construct: purchased DiscoverRx (KINOMEscan service)
Procedure: as §1

PLC/PRF/5 cells = test: MTT cell viability assay; assay type: cell-based; conditions: 72 h
Procedure: as §3

[3] = system: FGFR-dependent versus FGFR-independent cells; test: MTT cell viability assay, mean over cell line panel; assay type: cell-based
T24 cells = test: MTT cell viability assay; assay type: cell-based; conditions: Homo sapiens, T-24, T24 (bladder), 72 h
Procedure: as §3

[4] = system: LC3B-I to LC3B-II conversion in RT-112 cells; test: Western blot of autophagy marker LC3B; assay type: cell-based
Procedure: (§2) Cells were seeded and treated with indicated compounds at various concentrations for the indicated times. After treatment, cells were harvested by scraping with RIPA buffer containing protease inhibitors and phosphatase inhibitors (Roche Diagnostics Corp., Indianapolis, IN, USA). Total cell lysates were centrifuged at 13,000 g for 30 min and equal amounts of protein were separated by SDS–PAGE and immunoblotted with specific antibodies as previous described. The cells were allowed to recover for 24 h before following treatment. The small interfering RNA (siRNA) for Atg5 (HSS114103, HSS114104, HSS190366), and negative control (siCTL) were purchased from Invitrogen (Carlsbad, CA, USA). Transient transfection was performed by using lipofectamine 2000 according to the manufacture's instructions.

FUDDLS cells = test: MTT cell viability assay; assay type: cell-based; conditions: Homo sapiens, FUDDLS (sarcoma), 72 h
Procedure: as §3

Hep3B cells = test: MTT cell viability assay; assay type: cell-based; conditions: 72 h, mean
Procedure: as §3

RT-112 tumor xenografts = test: RT-112 xenograft model; assay type: in vivo; conditions: for tumor growth inhibition (% TGI): ip, nude mice
Procedure: Tumors were measured weekly using calipers. Tumor volume (mm^3) was calculated from w^2×l/2 (w = width, l= length in mm of the tumor).

RT4 cells = test: MTT cell viability assay; assay type: cell-based; conditions: Homo sapiens, RT-4, RT4 (bladder), 72 h
Procedure: as §3

MDA-MB-231 cells = test: MTT cell viability assay; assay type: cell-based; conditions: Homo sapiens, MDA-MB-231 (breast), 72 h
Procedure: as §3

MCF-7 cells = test: MTT cell viability assay; assay type: cell-based; conditions: Homo sapiens, MCF7, MCF-7 (breast), 72 h
Procedure: as §3

RT-112 cells [5] = test: MTT cell viability assay; assay type: cell-based; conditions: 72 h
Procedure: as §3

KMS-11 cells = test: MTT cell viability assay; assay type: cell-based; conditions: Homo sapiens, KMS-11 (myeloma), 72 h
Procedure: as §3

HCT-116 cells = test: MTT cell viability assay; assay type: cell-based; conditions: Homo sapiens, HCT-116 (colorectal), 72 h
Procedure: as §3

HepG2 cells = test: MTT cell viability assay; assay type: cell-based; conditions: Homo sapiens, HepG2 (liver), 72 h
Procedure: as §3

[6] = system: phosphorylation of FGFR1, FGFR3, FRS2, ERK and AKT in RT-112 cells; test: Western blot of FGFR signaling; assay type: cell-based
Procedure: as §2

SNU-16 cells = test: MTT cell viability assay; assay type: cell-based; conditions: 72 h
Procedure: as §3

RPMI-8226 cells = test: MTT cell viability assay; assay type: cell-based; conditions: Homo sapiens, RPMI-8226 (myeloma), 72 h
Procedure: as §3

T2 sequence (P29597 whole entry): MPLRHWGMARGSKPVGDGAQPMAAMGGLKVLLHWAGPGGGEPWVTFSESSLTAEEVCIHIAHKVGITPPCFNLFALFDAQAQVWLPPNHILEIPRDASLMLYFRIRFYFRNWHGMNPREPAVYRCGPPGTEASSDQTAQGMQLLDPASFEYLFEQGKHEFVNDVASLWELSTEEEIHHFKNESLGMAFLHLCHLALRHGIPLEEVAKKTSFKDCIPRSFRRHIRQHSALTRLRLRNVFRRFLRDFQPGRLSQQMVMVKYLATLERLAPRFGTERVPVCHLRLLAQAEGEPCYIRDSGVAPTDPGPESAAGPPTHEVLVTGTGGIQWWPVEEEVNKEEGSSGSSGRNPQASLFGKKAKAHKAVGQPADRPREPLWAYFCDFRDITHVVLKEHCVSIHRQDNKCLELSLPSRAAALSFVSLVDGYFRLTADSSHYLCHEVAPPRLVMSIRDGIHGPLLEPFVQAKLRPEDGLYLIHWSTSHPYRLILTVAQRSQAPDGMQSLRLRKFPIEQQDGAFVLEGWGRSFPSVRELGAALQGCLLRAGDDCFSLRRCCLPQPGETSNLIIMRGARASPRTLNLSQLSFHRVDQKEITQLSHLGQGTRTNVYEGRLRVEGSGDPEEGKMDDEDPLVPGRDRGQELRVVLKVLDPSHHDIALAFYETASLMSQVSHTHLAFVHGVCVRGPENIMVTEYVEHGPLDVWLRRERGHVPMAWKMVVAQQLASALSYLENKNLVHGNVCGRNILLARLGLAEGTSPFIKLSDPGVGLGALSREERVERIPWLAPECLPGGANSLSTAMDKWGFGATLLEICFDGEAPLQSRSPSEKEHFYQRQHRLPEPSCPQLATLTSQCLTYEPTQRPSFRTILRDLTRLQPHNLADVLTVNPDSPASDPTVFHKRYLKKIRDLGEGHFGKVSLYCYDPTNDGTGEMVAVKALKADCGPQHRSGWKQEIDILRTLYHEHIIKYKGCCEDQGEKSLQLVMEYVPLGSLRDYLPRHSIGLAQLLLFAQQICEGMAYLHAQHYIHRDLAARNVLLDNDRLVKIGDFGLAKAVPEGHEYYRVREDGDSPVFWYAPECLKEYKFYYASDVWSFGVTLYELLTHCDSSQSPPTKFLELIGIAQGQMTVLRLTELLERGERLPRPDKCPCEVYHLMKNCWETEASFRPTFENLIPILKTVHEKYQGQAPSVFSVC
T8 sequence (P04626 23-1255): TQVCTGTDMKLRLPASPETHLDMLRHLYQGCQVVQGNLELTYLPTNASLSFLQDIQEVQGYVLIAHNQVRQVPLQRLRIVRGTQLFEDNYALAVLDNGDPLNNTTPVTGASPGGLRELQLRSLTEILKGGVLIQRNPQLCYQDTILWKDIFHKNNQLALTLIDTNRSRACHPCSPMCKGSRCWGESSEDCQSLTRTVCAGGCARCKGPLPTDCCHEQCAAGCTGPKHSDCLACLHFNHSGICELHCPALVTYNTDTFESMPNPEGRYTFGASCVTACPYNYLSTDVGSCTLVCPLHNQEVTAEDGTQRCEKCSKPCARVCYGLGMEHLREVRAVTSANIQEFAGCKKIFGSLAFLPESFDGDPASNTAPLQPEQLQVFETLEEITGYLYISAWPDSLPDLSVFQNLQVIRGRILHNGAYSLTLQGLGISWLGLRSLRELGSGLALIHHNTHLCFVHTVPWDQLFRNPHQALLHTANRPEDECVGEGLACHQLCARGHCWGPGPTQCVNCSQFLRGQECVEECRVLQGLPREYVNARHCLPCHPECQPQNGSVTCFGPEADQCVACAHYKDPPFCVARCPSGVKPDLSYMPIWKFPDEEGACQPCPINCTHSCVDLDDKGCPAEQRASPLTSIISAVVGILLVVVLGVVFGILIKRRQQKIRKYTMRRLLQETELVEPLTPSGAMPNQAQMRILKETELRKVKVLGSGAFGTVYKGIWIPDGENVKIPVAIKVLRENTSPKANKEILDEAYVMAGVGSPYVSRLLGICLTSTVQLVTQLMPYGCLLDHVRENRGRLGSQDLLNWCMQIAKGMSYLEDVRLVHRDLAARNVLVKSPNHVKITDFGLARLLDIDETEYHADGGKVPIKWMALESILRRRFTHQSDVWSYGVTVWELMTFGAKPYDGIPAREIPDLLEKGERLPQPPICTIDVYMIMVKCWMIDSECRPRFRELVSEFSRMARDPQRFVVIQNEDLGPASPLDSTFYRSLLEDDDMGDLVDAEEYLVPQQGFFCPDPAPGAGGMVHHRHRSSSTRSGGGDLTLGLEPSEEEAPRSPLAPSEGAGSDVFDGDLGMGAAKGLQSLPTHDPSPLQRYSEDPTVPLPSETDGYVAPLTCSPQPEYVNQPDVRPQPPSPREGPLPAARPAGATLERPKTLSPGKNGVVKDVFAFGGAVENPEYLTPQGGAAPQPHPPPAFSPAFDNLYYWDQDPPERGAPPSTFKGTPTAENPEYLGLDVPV
T6 sequence (P09619 33-1106): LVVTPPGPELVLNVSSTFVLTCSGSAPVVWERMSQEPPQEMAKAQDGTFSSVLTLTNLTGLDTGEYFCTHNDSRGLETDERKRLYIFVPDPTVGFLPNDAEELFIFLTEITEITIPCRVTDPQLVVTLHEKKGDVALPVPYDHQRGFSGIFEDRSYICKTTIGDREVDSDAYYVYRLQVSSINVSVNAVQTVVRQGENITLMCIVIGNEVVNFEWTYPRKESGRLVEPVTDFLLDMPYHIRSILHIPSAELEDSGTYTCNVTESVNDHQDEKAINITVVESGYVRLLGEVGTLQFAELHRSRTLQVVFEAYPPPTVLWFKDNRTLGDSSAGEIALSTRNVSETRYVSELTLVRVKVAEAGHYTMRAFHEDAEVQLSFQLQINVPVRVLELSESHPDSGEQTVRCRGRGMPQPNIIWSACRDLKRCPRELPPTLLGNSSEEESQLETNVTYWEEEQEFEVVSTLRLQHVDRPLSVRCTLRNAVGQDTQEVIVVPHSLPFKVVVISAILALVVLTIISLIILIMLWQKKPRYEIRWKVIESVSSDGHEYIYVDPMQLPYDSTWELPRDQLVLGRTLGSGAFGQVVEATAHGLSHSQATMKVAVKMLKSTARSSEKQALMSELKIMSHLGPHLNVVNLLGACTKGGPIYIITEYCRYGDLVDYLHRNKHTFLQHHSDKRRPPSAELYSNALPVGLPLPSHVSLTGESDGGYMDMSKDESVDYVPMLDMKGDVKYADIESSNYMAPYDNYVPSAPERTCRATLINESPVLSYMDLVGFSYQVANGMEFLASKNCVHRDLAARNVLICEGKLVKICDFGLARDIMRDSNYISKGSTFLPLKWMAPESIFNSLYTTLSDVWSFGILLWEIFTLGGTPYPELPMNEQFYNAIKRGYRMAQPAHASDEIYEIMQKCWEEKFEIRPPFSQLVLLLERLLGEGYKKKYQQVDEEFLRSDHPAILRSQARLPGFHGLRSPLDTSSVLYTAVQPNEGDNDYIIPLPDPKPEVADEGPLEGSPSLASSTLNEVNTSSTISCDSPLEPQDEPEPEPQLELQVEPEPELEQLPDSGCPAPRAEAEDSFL
T3 sequence (P21802 22-821): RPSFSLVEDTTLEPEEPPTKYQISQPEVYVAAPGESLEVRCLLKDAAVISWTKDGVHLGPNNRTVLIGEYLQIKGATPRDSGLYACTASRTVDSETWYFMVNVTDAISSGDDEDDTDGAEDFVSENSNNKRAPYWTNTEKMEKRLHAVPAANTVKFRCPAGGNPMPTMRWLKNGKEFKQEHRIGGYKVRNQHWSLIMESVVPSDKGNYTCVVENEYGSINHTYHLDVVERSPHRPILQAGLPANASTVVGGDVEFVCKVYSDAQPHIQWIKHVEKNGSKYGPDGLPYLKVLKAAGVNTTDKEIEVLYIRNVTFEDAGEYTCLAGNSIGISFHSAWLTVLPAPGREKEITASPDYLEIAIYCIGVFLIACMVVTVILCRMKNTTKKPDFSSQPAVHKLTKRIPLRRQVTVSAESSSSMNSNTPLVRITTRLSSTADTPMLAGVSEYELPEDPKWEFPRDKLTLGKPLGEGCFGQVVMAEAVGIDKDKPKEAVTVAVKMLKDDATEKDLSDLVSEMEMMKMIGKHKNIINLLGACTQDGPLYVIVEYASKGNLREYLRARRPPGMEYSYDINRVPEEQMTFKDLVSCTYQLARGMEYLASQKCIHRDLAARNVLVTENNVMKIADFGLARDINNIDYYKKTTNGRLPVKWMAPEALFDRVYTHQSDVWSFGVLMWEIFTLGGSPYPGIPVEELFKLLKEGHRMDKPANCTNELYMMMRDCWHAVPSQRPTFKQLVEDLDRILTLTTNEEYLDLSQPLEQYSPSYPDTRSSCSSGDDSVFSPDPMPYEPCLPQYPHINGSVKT
T7 sequence (P22455 22-802): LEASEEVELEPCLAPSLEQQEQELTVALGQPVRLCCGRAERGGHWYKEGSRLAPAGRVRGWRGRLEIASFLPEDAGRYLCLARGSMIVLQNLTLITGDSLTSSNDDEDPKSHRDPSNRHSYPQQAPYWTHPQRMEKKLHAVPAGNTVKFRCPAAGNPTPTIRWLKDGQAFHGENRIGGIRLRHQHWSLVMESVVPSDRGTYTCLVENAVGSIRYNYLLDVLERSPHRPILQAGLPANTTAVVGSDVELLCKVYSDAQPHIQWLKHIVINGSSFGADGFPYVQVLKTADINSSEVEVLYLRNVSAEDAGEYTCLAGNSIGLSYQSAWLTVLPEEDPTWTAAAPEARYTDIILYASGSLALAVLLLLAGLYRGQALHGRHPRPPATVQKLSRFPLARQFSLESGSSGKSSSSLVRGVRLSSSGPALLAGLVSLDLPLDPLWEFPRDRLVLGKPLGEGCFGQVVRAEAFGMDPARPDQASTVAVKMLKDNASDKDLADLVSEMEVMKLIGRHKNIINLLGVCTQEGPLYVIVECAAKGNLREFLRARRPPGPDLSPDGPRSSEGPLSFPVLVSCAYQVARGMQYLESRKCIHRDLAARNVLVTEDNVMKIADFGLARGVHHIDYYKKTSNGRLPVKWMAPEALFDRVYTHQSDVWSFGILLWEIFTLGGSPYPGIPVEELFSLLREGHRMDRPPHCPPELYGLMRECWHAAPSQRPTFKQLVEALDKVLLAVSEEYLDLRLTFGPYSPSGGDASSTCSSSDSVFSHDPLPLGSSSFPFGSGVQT

## CCN1CCN(c2ccc(Nc3cc(N(C)C(=O)Nc4c(Cl)c(OC)cc(OC)c4Cl)ncn3)cc2)CC1 [BGJ-398, 3-(2,6-dichloro-3,5-dimethoxy-phenyl)-1-{6-[4-(4-ethyl-piperazin-1-yl)-phenylamino]-pyrimidin-4-yl}-1-methyl-urea]
HUVEC
  IC50: 50 nM
RT-112 cells [1]
  G0/G1 cell cycle arrest: also observed
  accumulation of the sub-G1 phase (apoptotic cell death): induced pronounced apoptosis

## CCN1CCN(c2ccc(Nc3ncnc(N(C)C(=O)Nc4c(Cl)c(OC)c(Cl)c(OC)c4Cl)n3)cc2)CC1 [MPT0L145]
A549 cells
  IC50: 5970 ± 100 nM
RT-112 cells [2]
  senescence (β-galactosidase activity): no appreciable senescence
VEGFR2
  Kd: 3100 nM
TYK2
  Kd: 660 nM
FGFR2
  Kd: 670 nM
FGFR1
  Kd: 130 nM
CSF1R
  Kd: 340 nM
PDGFRB
  Kd: 680 nM
FGFR4
  Kd: 7500 nM
Erbb2
  Kd: 10000 nM
FGFR3
  Kd: 270 nM
FLT3
  Kd: 1300 nM
PLC/PRF/5 cells; Homo sapiens, PLC/PRF/5 (liver)
  IC50: 1480 ± 300 nM
PLC/PRF/5 cells; PLC5/PRF/5, 5 μM, mean
  Viability (% of control cells) PLC5/PRF/5 (5 μM): 20.6 % of control cells
[3]; mean over FGFR-dependent cell lines, read-out: mean IC50 in FGFR-dependent cells
  IC50: 1830 nM
[3]; mean over FGFR-independent cell lines, read-out: mean IC50 in FGFR-independent cells
  IC50: 6740 nM
T24 cells
  IC50: 6000 ± 500 nM
[4]
  conversion of LC3B-I to LC3B-II: induced the conversion of LC3B-I to LC3B-II in a time- and concentration-dependent manner
RT-112 cells [1]
  G0/G1 cell cycle arrest: induced G0/G1 cell cycle arrest to a dramatic extent
  accumulation of the sub-G1 phase (apoptotic cell death): did not promote accumulation of the sub-G1 phase
FUDDLS cells
  IC50: 4740 ± 490 nM
Hep3B cells
  Viability (% of control cells) Hep3B (5 μM): 66.2 % of control cells
RT-112 tumor xenografts; 5 mg/kg, qd
  tumor growth inhibition (% TGI): 61.4%
RT-112 tumor xenografts; 10 mg/kg, qd
  tumor growth inhibition (% TGI): 74.6%
RT-112 tumor xenografts; compared with cisplatin
  safety from assessment of body weight loss after treatment: better safety
RT4 cells
  IC50: 4000 ± 580 nM
MDA-MB-231 cells
  IC50: 6040 ± 260 nM
MCF-7 cells
  IC50: 5980 ± 680 nM
RT-112 cells [5]; Homo sapiens, RT-112 (bladder)
  IC50: 1630 ± 10 nM
RT-112 cells [5]; RT-112, 5 μM, mean
  Viability (% of control cells) RT-112 (5 μM): 33.4 % of control cells
RT-112 cells [5]; mean
  Viability (% of control cells) RT-112 (10 μM): 8.5 % of control cells
KMS-11 cells
  IC50: 2050 ± 110 nM
HCT-116 cells
  IC50: 6120 ± 10 nM
HepG2 cells
  IC50: 1180 ± 160 nM
[6]; 1 h
  auto-phosphorylation of FGFR1 and FGFR3 and docking protein FRS2: exerted inhibitory activity
[6]; 8 h
  phosphorylation of ERK and AKT: fully repressed
SNU-16 cells; Homo sapiens, SNU-16 (gastric)
  IC50: 650 ± 70 nM
SNU-16 cells; SNU-16, 5 μM, mean
  Viability (% of control cells) SNU-16 (5 μM): 36.9 % of control cells
RPMI-8226 cells
  IC50: 8510 ± 1770 nM

## N.N.[Cl][Pt][Cl] [cisplatin, reference compound]
RT-112 tumor xenografts; 5 mg/kg, qwk
  tumor growth inhibition (% TGI): 56.3%

## COc1cccc2c1C(=O)c1c(O)c3c(c(O)c1C2=O)C[C@@](O)(C(=O)CO)C[C@@H]3O[C@H]1C[C@H](N)[C@H](O)[C@H](C)O1 [doxorubicin, reference compound]
RT-112 cells [2]
  senescence (β-galactosidase activity): increased β-galactosidase activity

## COc1c(Cl)c(NC(=O)N(C)c2cc(-c3cccnc3)ncn2)c(Cl)c(OC)c1Cl [MPT0L147]
RT-112 cells [5]; mean
  Viability (% of control cells) RT-112 (10 μM): 85.0 % of control cells

## COc1c(Cl)c(NC(=O)N(C)c2cc(-c3cccc([N+](=O)[O-])c3)ncn2)c(Cl)c(OC)c1Cl [MPT0L151]
RT-112 cells [5]; mean
  Viability (% of control cells) RT-112 (10 μM): 63.8 % of control cells

## COc1c(Cl)c(NC(=O)N(C)c2cc(-c3cccc(C#N)c3)ncn2)c(Cl)c(OC)c1Cl [MPT0L150]
RT-112 cells [5]; mean
  Viability (% of control cells) RT-112 (10 μM): 75.0 % of control cells
